Experimental data: US11414424B2, “Cardiac sarcomere inhibitors” (Cytokinetics, Inc., priority 2018, dated 2022)

Tested on: bovine cardiac myofibrils
Experiment: Myofibril assay: PK/LDH-coupled steady-state ATPase activity of skinned bovine cardiac myofibrils
Format: biochemical
Settings: Ca2+ activating to 75% of maximal rate
Method in brief: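 Steady-state ATPase of detergent-skinned bovine left-ventricular myofibrils (1 mg/mL), PK/LDH-coupled NADH read at 340 nm, in PIPES/MgCl2 buffer pH 6.8 with 50 μM ATP, 0.6 mM EGTA and CaCl2 set for 50% or 75% activation. Inhibition of activity measured.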

Point of comparison: `CC(C)[C@H]1C(=O)N(c2ncc(Cl)cc2F)CC(=O)N1Cc1ccc(C(F)(F)F)cc1` [Compound 554, (S)-1-(5-chloro-3-fluoro-pyridin-2-yl)-3-isopropyl-4-(4-(trifluoromethyl)-benzyl)piperazine-2,5-dione], “CDMF75 IC15” value 400 nM. Against it:
- CNc1cc(N2CC3(C2)C(=O)N(c2ccc(C#N)cc2F)CC(=O)N3Cc2ccc(C(F)(F)F)cc2)ccc1C(=O)OC [Compound 541, methyl 4-(8-(4-cyano-2-fluorophenyl)-6,9-dioxo-5-(4-(trifluoromethyl)benzyl)-2,5,8-triazaspiro[3.5]nonan-2-yl)-2-(methylamino)benzoate] — 2-fold lower, 200 nM
- CNC(=O)c1ccc(N2CC3(C2)C(=O)N(c2ccc(C#N)cc2F)CC(=O)N3Cc2ccc(C(F)(F)F)cc2)cc1NC [Compound 542, 4-(8-(4-cyano-2-fluoro-phenyl)-6,9-dioxo-5-(4-(trifluoromethyl)benzyl)-2,5,8-triazaspiro[3.5]nonan-2-yl)-N-methyl-2-(methylamino)benzamide] — 2-fold lower, 200 nM
- CNc1ccc(N2CC3(C2)C(=O)N(c2ccc(C#N)cc2F)CC(=O)N3Cc2ccc(C(F)(F)F)cc2)cc1C(=O)OC [Compound 543, methyl 5-(8-(4-cyano-2-fluorophenyl)-6,9-dioxo-5-(4-(trifluoromethyl)benzyl)-2,5,8-triazaspiro[3.5]nonan-2-yl)-2-(methylamino)-benzoate] — within 1.5-fold, 300 nM
- CNc1cccc(N2CC3(C2)C(=O)N(c2ccc(C#N)cc2F)CC(=O)N3Cc2ccc(C(F)(F)F)cc2)c1C(=O)OC [Compound 544, methyl 2-(8-(4-cyano-2-fluorophenyl)-6,9-dioxo-5-(4-(trifluoromethyl)benzyl)-2,5,8-triazaspiro[3.5]nonan-2-yl)-6-(methylamino)-benzoate] — within 1.5-fold, 300 nM
- CNC(=O)c1cc(N2CC3(C2)C(=O)N(c2ccc(C#N)cc2F)CC(=O)N3Cc2ccc(C(F)(F)F)cc2)ccc1NC [Compound 545, 5-(8-(4-cyano-2-fluorophenyl)-6,9-dioxo-5-(4-(trifluoromethyl)benzyl)-2,5,8-triazaspiro[3.5]nonan-2-yl)-N-methyl-2-(methylamino)benzamide] — 2-fold lower, 200 nM
- CNc1c(C(=O)OC)cccc1N1CC2(C1)C(=O)N(c1ccc(C#N)cc1F)CC(=O)N2Cc1ccc(C(F)(F)F)cc1 [Compound 546, methyl 3-(8-(4-cyano-2-fluorophenyl)-6,9-dioxo-5-(4-(trifluoromethyl)benzyl)-2,5,8-triazaspiro[3.5]nonan-2-yl)-2-(methylamino)-benzoate] — 2.5-fold higher, 1000 nM
- CNC(=O)c1cccc(N2CC3(C2)C(=O)N(c2ccc(C#N)cc2F)CC(=O)N3Cc2ccc(C(F)(F)F)cc2)c1NC [Compound 547, 3-(8-(4-cyano-2-fluorophenyl)-6,9-dioxo-5-(4-(trifluoromethyl)benzyl)-2,5,8-triazaspiro[3.5]nonan-2-yl)-N-methyl-2-(methylamino)benzamide] — the same, 400 nM
- O=C1CN(c2ncc(Cl)cc2F)C(=O)C2(CCC2)N1Cc1ccc(C(F)(F)F)cc1 [Compound 548, 8-(5-chloro-3-fluoropyridin-2-yl)-5-(4-(trifluoromethyl)-benzyl)-5,8-diazaspiro-[3.5]nonane-6,9-dione] — 1.5-fold higher, 600 nM
- O=C1CN(c2ncc(Cl)cc2F)C(=O)C2(CC2)N1Cc1ccc(C(F)(F)F)cc1 [Compound 550, 7-(5-chloro-3-fluoropyridin-2-yl)-4-(4-(trifluoromethyl)benzyl)-4,7-diazaspiro[2.5]octane-5,8-dione] — 2-fold higher, 800 nM
- O=C1CN(c2ncc(Cl)cc2F)C(=O)C2(COC2)N1Cc1ccc(C(F)(F)F)cc1 [Compound 551, 8-(5-chloro-3-fluoropyridin-2-yl)-5-(4-(trifluoromethyl)-benzyl)-2-oxa-5,8-diazaspiro[3.5]nonane-6,9-dione] — 6.2-fold higher, 2480 nM
- CNC(=O)N1CC2(C1)C(=O)N(c1ncc(Cl)cc1F)CC(=O)N2Cc1ccc(C(F)(F)F)cc1 [Compound 552, 8-(5-chloro-3-fluoropyridin-2-yl)-N-methyl-6,9-dioxo-5-(4-(trifluoromethyl)-benzyl)-2,5,8-triazaspiro-[3.5]nonane-2-carboxamide] — within 1.5-fold, 500 nM
- O=C1CN(c2ncc(Cl)cc2F)C(=O)C2(CCOC2)N1Cc1ccc(C(F)(F)F)cc1 (stereo not drawn) [Compound 553, 9-(5-chloro-3-fluoropyridin-2-yl)-6-(4-(trifluoromethyl)-benzyl)-2-oxa-6,9-diazaspiro[4.5]decane-7,10-dione] — 3.5-fold higher, 1400 nM
- O=C1[C@H](C2CCC2)N(Cc2ccc(C(F)(F)F)cc2)C(=O)CN1c1ncc(Cl)cc1F [Compound 555, (S)-1-(5-chloro-3-fluoro-pyridin-2-yl)-3-cyclobutyl-4-(4-(trifluoromethyl)-benzyl)piperazine-2,5-dione] — 2.2-fold higher, 900 nM
- CC(=O)N1CC2(C1)C(=O)N(c1ncc(Cl)cc1F)CC(=O)N2[C@@H](C)c1ccc(Cl)cc1 [Compound 556, (S)-2-acetyl-8-(5-chloro-3-fluoropyridin-2-yl)-5-(1-(4-chlorophenyl)ethyl)-2,5,8-triazaspiro[3.5]nonane-6,9-dione] — 6.8-fold higher, 2700 nM
- C[C@@H](c1ccc(Cl)cc1)N1C(=O)CN(c2ncc(Cl)cc2F)C(=O)C12COC2 [Compound 558] — 18-fold higher, 7040 nM
- C[C@@H](c1ccc(Cl)cc1)N1C(=O)CN(c2ncc(Cl)cc2F)C(=O)C12CN(C(=O)NC1CC1)C2 [Compound 559, (S)-8-(5-chloro-3-fluoro-pyridin-2-yl)-5-(1-(4-chlorophenyl)ethyl)-N-cyclopropyl-6,9-dioxo-2,5,8-triazaspiro[3.5]-nonane-2-carboxamide] — 63-fold higher, 25100 nM
- CCNC(=O)N1CC2(C1)C(=O)N(c1ncc(Cl)cc1F)CC(=O)N2[C@@H](C)c1ccc(Cl)cc1 [Compound 560, (S)-8-(5-chloro-3-fluoro-pyridin-2-yl)-5-(1-(4-chlorophenyl)ethyl)-N-ethyl-6,9-dioxo-2,5,8-triazaspiro[3.5]nonane-2-carboxamide] — 22-fold higher, 8600 nM
- CC(C)NC(=O)N1CC2(C1)C(=O)N(c1ncc(Cl)cc1F)CC(=O)N2[C@@H](C)c1ccc(Cl)cc1 [Compound 561, (S)-8-(5-chloro-3-fluoro-pyridin-2-yl)-5-(1-(4-chlorophenyl)ethyl)-N-isopropyl-6,9-dioxo-2,5,8-triazaspiro[3.5]nonane-2-carboxamide] — 50-fold higher, 19800 nM
- C[C@@H](c1ccc(Cl)cc1)N1C(=O)CN(c2ncc(Cl)cc2F)C(=O)C12CN(C(=O)NC1CCOCC1)C2 [Compound 562, (S)-8-(5-chloro-3-fluoro-pyridin-2-yl)-5-(1-(4-chlorophenyl)ethyl)-6,9-dioxo-N-(tetrahydro-2H-pyran-4-yl)-2,5,8-triazaspiro[3.5]nonane-2-carboxamide] — 72-fold higher, 29000 nM
- CNC(=O)N1CC2(C1)C(=O)N(c1ncc(Cl)cc1F)CC(=O)N2[C@@H](C)c1ccc(Cl)cc1 [Compound 563, (S)-8-(5-chloro-3-fluoro-pyridin-2-yl)-5-(1-(4-chlorophenyl)ethyl)-N-methyl-6,9-dioxo-2,5,8-triazaspiro[3.5]nonane-2-carboxamide] — 5.5-fold higher, 2200 nM
